Source: ChEMBL document CHEMBL5728011, “Bicyclic heterocyclic compound” (2020)
pIC50: −log10 of the molar value.

What follows are compounds tested against Kynurenine/alpha-aminoadipate aminotransferase, mitochondrial (Homo sapiens, UniProt Q8N5Z0) (assay: Inhibitory Assay: To a reaction mixture (45 μL) containing 3.0 μmol/L kynurenine, 10 μmol/L pyridoxal phosphate, 2.0 ng/μL human recombinant KAT-II, and 150 mmol/L tris(hydroxymethyl)aminomethane-acetate buffer (pH 8.0) was added a 10% dimethyl sulfoxide solution (5 μL) of each test compound prepared, and the mixture was reacted at 37° C. for 1 hr. After the reaction, 50% trichloroacetic acid (5 μL) was added to terminate the reaction.The resultant kynurenic acid was quantified as follows by high performance liquid chromatography. An enzyme reaction mixture was separated by an octadecylsilane reversed-phase column (SC-50DS, Eicom Corporation; mobile phase: 250 mmol/L zinc acetate, 50 mmol/L sodium acetate, and 5.0% acetonitrile (pH 6.2)) incubated at 30° C., and kynurenic acid was quantified using a fluorescence detector (RF-20Axs, Shimadzu Corporation) at excitation wavelength 354 nm, detection wavelength 460 nm. The analytical curve was drawn every time by an external standard method. Each test compound was tested by dual measurement at each concentration. The kynurenic acid level in the presence of a test compound at each concentration was converted into % relative to kynurenic acid resulting from a reaction with an enzyme alone as 100%, and the obtained values were fitted to S-curve to determine IC50.).
Chain of Kynurenine/alpha-aminoadipate aminotransferase, mitochondrial (Q8N5Z0 whole entry): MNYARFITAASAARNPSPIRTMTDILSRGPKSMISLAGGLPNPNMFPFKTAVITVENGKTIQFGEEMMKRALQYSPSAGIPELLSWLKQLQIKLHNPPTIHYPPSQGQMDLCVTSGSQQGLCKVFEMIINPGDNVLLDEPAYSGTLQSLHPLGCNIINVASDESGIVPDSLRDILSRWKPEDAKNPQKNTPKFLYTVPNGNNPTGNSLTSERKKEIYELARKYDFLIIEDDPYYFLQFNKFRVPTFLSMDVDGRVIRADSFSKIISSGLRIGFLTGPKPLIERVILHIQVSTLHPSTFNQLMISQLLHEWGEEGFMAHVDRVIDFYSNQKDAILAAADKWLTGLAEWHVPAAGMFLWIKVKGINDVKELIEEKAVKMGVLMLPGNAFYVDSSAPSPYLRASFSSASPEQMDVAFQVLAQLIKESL
A pIC50 of 7.15 was found for CC1(C)CN(c2ncnc3nc(N4CCC[C@@H]4C(=O)NCc4ccccc4)sc23)CCO1 in this work. A pIC50 of 7.19 was found for COCCc1nc(N(C)C)c2sc(N3CCC[C@@H]3C(=O)NCc3ccccc3)nc2n1 in this work. A pIC50 of 7.30 was found for Cc1nc(N(C)C)c2sc(N3CCC[C@@H]3C(=O)NCc3ccccc3)nc2n1 in this work. A pIC50 of 7.57 was found for CN(C)c1nc(C(F)(F)F)nc2nc(N3CCC[C@@H]3C(=O)NCc3ccccc3)sc12 in this work. A pIC50 of 6.85 was found for COCCOc1ncnc2nc(N3CCC[C@@H]3C(=O)NCc3ccccc3)sc12 in this work. A pIC50 of 7.33 was found for O=C(NCc1ccccc1)[C@H]1CCCN1c1nc2ncnc(N3CCOCC3)c2s1 in this work. A pIC50 of 7.09 was found for COCc1nc(N(C)C)c2sc(N3CCC[C@@H]3C(=O)NCc3ccccc3)nc2n1 in this work. A pIC50 of 7.46 was found for CON(C)c1ncnc2nc(N3CCC[C@@H]3C(=O)NCc3ccccc3)sc12 in this work.
